{"source": "ChEMBL document CHEMBL4814073", "about": "“Ring-opening of five-membered heterocycles conjugated 4-isopropylresorcinol scaffold-based benzamides as HSP90 inhibitors suppressing tumor growth in vitro and in vivo” (Eur J Med Chem, 2021)", "key": {"CYP2C8": {"target": "T1, CYP2C8 (Homo sapiens, UniProt P10632)", "T1 sequence (P10632 whole entry)": "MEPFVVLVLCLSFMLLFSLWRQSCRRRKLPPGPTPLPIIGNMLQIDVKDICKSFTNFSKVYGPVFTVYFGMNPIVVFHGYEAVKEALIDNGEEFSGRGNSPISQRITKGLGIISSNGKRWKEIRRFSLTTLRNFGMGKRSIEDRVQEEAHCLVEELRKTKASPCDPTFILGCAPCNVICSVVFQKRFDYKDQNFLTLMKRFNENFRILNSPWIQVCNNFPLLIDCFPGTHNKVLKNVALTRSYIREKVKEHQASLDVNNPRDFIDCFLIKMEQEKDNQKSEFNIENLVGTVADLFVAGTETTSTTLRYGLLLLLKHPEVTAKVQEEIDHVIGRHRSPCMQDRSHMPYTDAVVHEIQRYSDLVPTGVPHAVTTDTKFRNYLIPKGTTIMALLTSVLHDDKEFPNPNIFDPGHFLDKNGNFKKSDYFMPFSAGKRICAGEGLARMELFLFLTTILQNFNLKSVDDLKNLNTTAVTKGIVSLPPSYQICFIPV", "assay": "Inhibition of CYP2C8 in human liver microsomes using amodiaquine as substrate at 50 uM by LC-MS/MS analysis", "format": "ADME", "details": "probe amodiaquine"}, "A549 [1]": {"tested_on": "A549", "assay": "Induction of apoptosis in human A549 cells expressing wild type p53 assessed as caspase 3 cleavage at 0.3 uM incubated for 24 hrs by Western blot analysis", "format": "functional, cell-based"}, "A549 [2]": {"tested_on": "A549", "assay": "Induction of cell cycle arrest in human A549 cells assessed as decrease in cdc2 expression at Tyr15 at 0.3 uM incubated for 24 hrs by Western blot analysis", "format": "functional, cell-based"}, "[3]": {"assay": "Volume of distribution at steady state in Sprague-Dawley rat at 2 mg/kg, iv measured after 1 hrs by LC-MS/MS analysis", "format": "ADME, organism-based", "details": "in vivo, read-out: Vdss"}, "[4]": {"assay": "Metabolic stability in Sprague-Dawley rat hepatocytes assessed as Intrinsic clearance by LC-MS/MS analysis", "format": "ADME, cell-based, Hepatocyte"}, "A549 [5]": {"tested_on": "A549", "assay": "Induction of apoptosis in human A549 cells assessed as upregulation of p53 protein expression at 0.3 uM incubated for 24 hrs by Western blot analysis", "format": "functional, cell-based"}, "Heat shock protein HSP90 [6]": {"target": "T2, Heat shock protein HSP90 (Homo sapiens, UniProt P07900+P08238)", "assay": "Inhibition of HSP90 in human A549 cells assessed as downregulation of Akt expression at 3 uM by immunoblot analysis", "format": "cell-based", "details": "time hrs <=24, TDE = time-dependent effect"}, "[7]": {"assay": "Tmax in Sprague-Dawley rat at 2 mg/kg, iv measured after 1 hrs by LC-MS/MS analysis", "format": "ADME, organism-based", "details": "in vivo"}, "[8]": {"assay": "Cmax in Sprague-Dawley rat at 20 mg/kg, po measured after 1 hrs by LC-MS/MS analysis", "format": "ADME, organism-based", "parameters": "route oral, dose 20 mg/kg, time 1 hrs", "details": "in vivo"}, "[9]": {"assay": "AUC (0 to infinity) in Sprague-Dawley rat at 2 mg/kg, iv measured after 1 hrs by LC-MS/MS analysis", "format": "ADME, organism-based", "parameters": "route intravenous, dose 2 mg/kg, time 1 hrs", "details": "in vivo"}, "Cytochrome P450 1A2": {"target": "T3, Cytochrome P450 1A2 (Homo sapiens, UniProt P05177)", "T3 sequence (P05177 whole entry)": "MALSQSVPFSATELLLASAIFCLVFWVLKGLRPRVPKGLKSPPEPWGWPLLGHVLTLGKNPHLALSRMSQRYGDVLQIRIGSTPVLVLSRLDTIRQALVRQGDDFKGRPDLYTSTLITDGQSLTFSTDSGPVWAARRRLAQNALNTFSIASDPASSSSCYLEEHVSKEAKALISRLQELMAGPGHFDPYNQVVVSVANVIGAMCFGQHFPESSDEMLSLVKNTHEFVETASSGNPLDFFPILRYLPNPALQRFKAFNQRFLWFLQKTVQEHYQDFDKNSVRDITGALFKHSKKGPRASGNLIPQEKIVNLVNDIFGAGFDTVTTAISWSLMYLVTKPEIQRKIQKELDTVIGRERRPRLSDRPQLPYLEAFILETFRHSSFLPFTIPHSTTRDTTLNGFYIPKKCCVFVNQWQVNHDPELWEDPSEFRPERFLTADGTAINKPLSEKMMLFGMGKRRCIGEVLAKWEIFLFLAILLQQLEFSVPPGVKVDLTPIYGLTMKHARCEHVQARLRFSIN", "assay": "Inhibition of CYP1A2 in human liver microsomes using phenacetin as substrate by LC-MS/MS analysis", "format": "ADME"}, "[10]": {"assay": "Tmax in Sprague-Dawley rat at 20 mg/kg, po measured after 1 hrs by LC-MS/MS analysis", "format": "ADME, organism-based", "details": "in vivo"}, "A549 [11]": {"tested_on": "A549", "assay": "Induction of cell cycle arrest in human A549 cells assessed as M stage arrest by measuring upregulation of p-histone H3 (Ser10) expression at 0.3 uM incubated for 24 hrs by Western blot analysis", "format": "functional, cell-based"}, "[12]": {"assay": "Metabolic stability in human hepatocytes assessed as Intrinsic clearance by LC-MS/MS analysis", "format": "ADME, cell-based, Hepatocyte"}, "Cytochrome P450 2D6": {"target": "Cytochrome P450 2D6 (Homo sapiens, UniProt P10635)", "sequence (P10635 whole entry)": "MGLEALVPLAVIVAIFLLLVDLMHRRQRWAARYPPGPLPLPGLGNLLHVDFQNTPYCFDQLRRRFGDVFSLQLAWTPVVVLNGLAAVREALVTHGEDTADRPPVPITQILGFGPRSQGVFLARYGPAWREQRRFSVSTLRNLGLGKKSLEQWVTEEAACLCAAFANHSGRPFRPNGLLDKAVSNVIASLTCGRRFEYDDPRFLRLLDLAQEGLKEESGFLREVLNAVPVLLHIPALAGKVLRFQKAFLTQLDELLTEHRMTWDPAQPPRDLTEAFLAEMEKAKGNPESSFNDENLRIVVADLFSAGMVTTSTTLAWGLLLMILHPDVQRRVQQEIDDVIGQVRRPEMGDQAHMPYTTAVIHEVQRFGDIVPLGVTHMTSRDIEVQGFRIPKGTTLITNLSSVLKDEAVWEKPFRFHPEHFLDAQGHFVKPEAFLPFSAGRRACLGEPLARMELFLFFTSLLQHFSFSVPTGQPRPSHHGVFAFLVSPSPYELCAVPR", "assay": "Inhibition of CYP2D6 in human liver microsomes using dextromethorphan as substrate by LC-MS/MS analysis", "format": "ADME"}, "[13]": {"assay": "Apparent permeability across basolateral to apical in human Caco2 cells by LC-MS/MS analysis", "format": "ADME, cell-based", "details": "Caco-2, read-out: permeability"}, "[14]": {"assay": "Half life in Sprague-Dawley rat at 20 mg/kg, po measured after 1 hrs by LC-MS/MS analysis", "format": "ADME, organism-based", "details": "in vivo"}, "A549 [15]": {"tested_on": "A549", "assay": "Inhibition of MAPK signaling pathway in human A549 cells at 3 uM incubated for 24 hrs by immunoblot analysis", "format": "cell-based"}, "[16]": {"assay": "Toxicity in BALB/c mouse xenografted with human A549 cells assessed as reduction in body weight at 25 to 50 mg/kg, po treated daily relative to control", "details": "in vivo"}, "Heat shock protein HSP90 [17]": {"target": "T2, Heat shock protein HSP90", "assay": "Inhibition of HSP90 in human A549 cells assessed as downregulation of FAK expression at 3 uM by immunoblot analysis", "format": "cell-based", "details": "time hrs <=24, TDE = time-dependent effect"}, "[18]": {"assay": "Hepatic clearance in Sprague-Dawley rat by LC-MS/MS analysis", "format": "ADME, tissue-based, Hepatocyte", "details": "hepatocytes"}, "A549 [19]": {"tested_on": "A549", "assay": "Inhibition of MAPK signaling pathway in human A549 cells at 3 uM incubated upto 24 hrs by immunoblot analysis", "format": "cell-based", "details": "time hrs <=24, TDE = time-dependent effect"}, "[20]": {"assay": "Half life in Sprague-Dawley rat at 2 mg/kg, iv measured after 1 hrs by LC-MS/MS analysis", "format": "ADME, organism-based", "details": "in vivo"}, "Heat shock protein HSP90 [21]": {"target": "T2, Heat shock protein HSP90", "assay": "Inhibition of HSP90 (unknown origin) assessed as competition of fluorescently labelled geldanamycin binding after 2 hrs by microplate reader analysis", "format": "protein assay"}, "NCI-H1975": {"tested_on": "NCI-H1975", "assay": "Antiproliferative activity against human NCI-H1975 cells harbouring EGFR L858R/T790M mutant measured after 48 hrs by SRB assay", "details": "NCI-H1975, 48 h"}, "A549 [22]": {"tested_on": "A549", "assay": "Induction of apoptosis in human A549 cells assessed as increase in cleaved caspase 3 protein expression at 0.3 to 3 uM measured after 18 hrs by western blot analysis", "format": "functional, cell-based", "details": "dose 0.3-3 µM"}, "Heat shock protein HSP90 [23]": {"target": "T2, Heat shock protein HSP90", "assay": "Inhibition of HSP90 in human A549 cells assessed as downregulation of Src expression incubated for 24 hrs by immunoblot analysis", "format": "cell-based", "details": "dose microM <=3, time 24.0 hrs"}, "A549 [24]": {"tested_on": "A549", "assay": "Induction of apoptosis in human A549 cells assessed as increase in cleaved caspase 9 protein expression at 0.3 to 3 uM measured after 18 hrs by western blot analysis", "format": "functional, cell-based", "details": "dose 0.3-3 µM"}}, "note": "Calls of active or inactive are those of the source. The calls are words filed in the database; no cut-off is given here.", "data": [{"smiles": "CCN(C(=O)c1cc(C(C)C)c(O)cc1O)c1cccnc1", "values": [{"measurement": "inhibition at 50 µM", "setting": "CYP2C8", "value": 54.3, "unit": "%"}, {"measurement": "Activity", "setting": "A549 [1]", "value": "inactive"}, {"measurement": "Activity", "setting": "A549 [2]", "value": "Active"}, {"measurement": "Vd", "setting": "[3]", "value": 4.59, "unit": "L/kg"}, {"measurement": "CLint", "setting": "[4]", "value": 751, "unit": "mL/min/kg"}, {"measurement": "Activity", "setting": "A549 [5]", "value": "Active"}, {"measurement": "inhibition", "setting": "Heat shock protein HSP90 [6]", "value": "Tde"}, {"measurement": "Tmax", "setting": "[7]", "value": 1.8, "unit": "min"}, {"measurement": "Cmax", "setting": "[8]", "value": 40.5, "unit": "ng/mL"}, {"measurement": "AUC", "setting": "[9]", "value": 456, "unit": "ng·h/mL"}, {"measurement": "IC50", "setting": "Cytochrome P450 1A2", "value": "> 50000", "unit": "nM"}, {"measurement": "Tmax", "setting": "[10]", "value": 0.25, "unit": "h"}, {"measurement": "Activity", "setting": "A549 [11]", "value": "Active"}, {"measurement": "CLint", "setting": "[12]", "value": 55.3, "unit": "mL/min/kg"}, {"measurement": "IC50", "setting": "Cytochrome P450 2D6", "value": "> 50000", "unit": "nM"}, {"measurement": "Papp B→A", "setting": "[13]", "value": 30.6, "unit": "×10⁻⁶ cm/s"}, {"measurement": "half-life", "setting": "[14]", "value": 16.4, "unit": "h"}, {"measurement": "inhibition", "setting": "A549 [15]", "value": "Dose-Dependent Effect"}, {"measurement": "Activity", "setting": "[16]", "value": "Non-Toxic"}, {"measurement": "inhibition", "setting": "Heat shock protein HSP90 [17]", "value": "Tde"}, {"measurement": "CLhep predicted", "setting": "[18]", "value": 51.2, "unit": "mL/min/kg"}, {"measurement": "inhibition", "setting": "A549 [19]", "value": "Tde"}, {"measurement": "half-life", "setting": "[20]", "value": 2.9, "unit": "h"}, {"measurement": "IC50", "setting": "Heat shock protein HSP90 [21]", "value": 110, "unit": "nM"}, {"measurement": "GI50", "setting": "NCI-H1975", "value": 50, "unit": "nM"}, {"measurement": "Activity", "setting": "A549 [22]", "value": "Active"}, {"measurement": "inhibition", "setting": "Heat shock protein HSP90 [23]", "value": "Dose-Dependent Effect"}, {"measurement": "Activity", "setting": "A549 [24]", "value": "Active"}]}]}
